Test results from article PMC12864786 (Nature Communications, 2026).

Assays:
[1] = target: MBP-tagged Class III PPK2 enzyme from Pedobacter sp. (PED), full-length (Pedobacter sp.); assay: AUC
CHU = target: T1, CHU (Cytophaga hutchinsonii, UniProt A0A6N4SMB5); assay: HPLC product distribution, end point […] min; format: biochemical; details: 4 mM nucleotide, PolyP-60 65 mM phosphate units, 10 mM Mn2+, 50 mM MOPS-NaOH pH 7.0, 37 °C
T1 sequence (A0A6N4SMB5 1-305): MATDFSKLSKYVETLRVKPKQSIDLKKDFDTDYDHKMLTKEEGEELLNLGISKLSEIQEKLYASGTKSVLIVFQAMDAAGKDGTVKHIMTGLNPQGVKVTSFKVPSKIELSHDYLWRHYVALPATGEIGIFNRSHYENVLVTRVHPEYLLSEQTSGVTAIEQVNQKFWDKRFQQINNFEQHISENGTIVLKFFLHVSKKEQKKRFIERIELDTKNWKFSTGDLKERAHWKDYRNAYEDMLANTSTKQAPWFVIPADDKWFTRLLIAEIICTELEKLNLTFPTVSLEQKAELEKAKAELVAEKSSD

ARE = target: T2, ARE (Algibacter luteus, UniProt A0A1M6FUJ9); assay: HPLC product distribution, end point […] min; format: biochemical; details: 4 mM nucleotide, PolyP 65 mM phosphate units, 10 mM Mn2+, 50 mM MOPS-NaOH pH 7.0, 37 °C
T2 sequence (A0A1M6FUJ9 1-283): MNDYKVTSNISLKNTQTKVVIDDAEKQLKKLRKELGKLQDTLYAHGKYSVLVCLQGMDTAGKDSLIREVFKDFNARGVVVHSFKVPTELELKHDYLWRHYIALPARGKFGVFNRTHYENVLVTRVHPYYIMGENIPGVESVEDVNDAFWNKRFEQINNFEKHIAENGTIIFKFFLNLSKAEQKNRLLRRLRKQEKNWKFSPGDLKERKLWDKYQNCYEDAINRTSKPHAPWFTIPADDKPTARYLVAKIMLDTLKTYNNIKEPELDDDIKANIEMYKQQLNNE

AUC = target: the molecule itself; assay: AUC

Work on “MBP-tagged Class III PPK2 enzyme from Pedobacter sp. (PED), full-length” yielded a stoichiometry N [1] of 2.

`Nc1ncnc2c1ncn2[C@@H]1O[C@H](COP(=O)(O)O)[C@@H](O)[C@H]1O` [AMP] was tested, and the product distribution (CHU) was “Product distribution of MAN and CHU under the same conditions”.

With `Nc1nc2c(ncn2[C@@H]2O[C@H](COP(=O)(O)O)[C@@H](O)[C@H]2O)c(=O)[nH]1` [GMP] the “Percent conversion to NTP” value (ARE) was “PED and ARE exhibit weak activity against CMP, GDP, and GMP” and the product distribution (CHU) was “CHU produces significant amounts of GPn (guanine nucleotides with four or more phosphate groups)”.

B1: MBP-tagged Class III PPK2 enzyme from Cytophaga hutchinsonii (CHU), full-length (enzyme, UniProt A0A6N4SMB5 1-305, looked up)
chain: MATDFSKLSKYVETLRVKPKQSIDLKKDFDTDYDHKMLTKEEGEELLNLGISKLSEIQEKLYASGTKSVLIVFQAMDAAGKDGTVKHIMTGLNPQGVKVTSFKVPSKIELSHDYLWRHYVALPATGEIGIFNRSHYENVLVTRVHPEYLLSEQTSGVTAIEQVNQKFWDKRFQQINNFEQHISENGTIVLKFFLHVSKKEQKKRFIERIELDTKNWKFSTGDLKERAHWKDYRNAYEDMLANTSTKQAPWFVIPADDKWFTRLLIAEIICTELEKLNLTFPTVSLEQKAELEKAKAELVAEKSSD
B1 was tested, and the “stoichiometry N” value (AUC) was 2.
